Patent US11759496B2, “Compounds and pharmaceutical use thereof in the treatment of cancer” (priority 2016, dated 2023)
Non-standard residues stand in square brackets, D forms with d. Residues, ends and D or L forms follow the SMILES beside them. No end group written: not given here. NMeR = CN[C@@H](CCCNC(=N)N)C(=O)O; Nle = CCCC[C@H](N)C(=O)O

How the values were obtained:
[1] = biological target: T1, CD47 (membrane preparation from MEC-1 cells) (Homo sapiens, UniProt Q08722); experiment: Binding affinity by biolayer interferometry (Octet RED96) on biotinylated MEC-1 cell membrane preparation; details: NPD = Non Pertinent Data; for Kd (μM): Table 3, average of two or more measurements; for Kd(μM)PR: Table 4, N-methyl peptides
T1 construct: MEC-1 cell membrane preparation were biotinylated with the EZ-Link NHS-PEG4-Biotin kit; endogenous in cells; host or cells: MEC-1 cells (membrane preparation)
Experimental: The binding affinities of peptides for a membrane preparation from MEC-1 cells were measured by biolayer interferometry on an Octet RED96 System (Pall FortéBio Corp., Menlo Park, Calif.).
The binding affinities of peptides for a membrane preparation from MEC-1 cells were measured by biolayer interferometry on an Octet RED96 System (Pall FortéBio Corp., Menlo Park, Calif.). This system monitors interference of light reflected from two sources (an internal reflection surface and the liquid/solid interface of a fiber optic sensor) to measure the rate of binding of molecules to the biosensor surface.
MEC-1 cell membrane preparation were biotinylated with the EZ-Link NHS-PEG4-Biotin kit from Thermo-Scientific. Biotinylated membranes were then loaded onto SuperStreptavidin (SSA) biosensors (Pall FortéBio Corp.) at empirically determined concentrations.
In order to highlight the pharmacological properties of these peptides, a systematic SAR study by the development of a binding assay allowing to the assessment of the affinity of the 4N1K analogues to CD47 was initiated. […] An Ala-scan to identify the pharmacophores of 4N1K was implemented.
The binding affinities of peptides for a MEC-1 cells membrane preparation were measured by biolayer interferometry on an Octet RED96 System (Pall FortéBio Corp., Menlo Park, Calif.). This system monitors interference of light reflected from two sources (an internal reflection surface and the liquid/solid interface of a fiber optic sensor) to measure the rate of binding of molecules to the biosensor surface. MEC-1 cells membrane preparation is biotinylated with the EZ-Link NHS-PEG4-Biotin kit from Thermo-Scientific and excess biotin is removed using desalting column from Thermo-Scientific. Biotinylated membranes are then loaded onto SuperStreptavidin (SSA) biosensors (Pall FortéBio Corp.) at empirically determined concentrations. […] Typically, the biosensors were pre-equilibrated in PBS containing either biotinylated membranes or biocytine 100 μg/mL. Biosensors are then equilibrated in assay buffer for 10 min, brought to baseline in assay buffer for 60 sec. and transferred to wells containing peptide in dose-response (association for 120 sec. and dissociation for 300 sec.). The double reference with either membrane-loaded biosensors without any peptide dose-response or biocytine-loaded biosensors with each peptide dose-response were run in parallel for background signal double subtractions. Binding kinetics were calculated using the FortéBio Data Analysis v8.2 software.

[2] = system: MEC-1 cells; experiment: MEC-1 cell death (PCD) after 2 h peptide treatment; assay type: cell-based; details: for MEC-1 Cell Death (%) 2 h, [peptides] = 200 μM: Table 3, 200 μM peptide; for Cell Death (MEC-1, 2 h): Table 4
Experimental: Then the peptides structures were tested via NMR and X-ray. The peptides were also tested for their activity on MEC-1 and their KDs and Retention times on LCMS were determined.

T1 sequence (Q08722 19-323): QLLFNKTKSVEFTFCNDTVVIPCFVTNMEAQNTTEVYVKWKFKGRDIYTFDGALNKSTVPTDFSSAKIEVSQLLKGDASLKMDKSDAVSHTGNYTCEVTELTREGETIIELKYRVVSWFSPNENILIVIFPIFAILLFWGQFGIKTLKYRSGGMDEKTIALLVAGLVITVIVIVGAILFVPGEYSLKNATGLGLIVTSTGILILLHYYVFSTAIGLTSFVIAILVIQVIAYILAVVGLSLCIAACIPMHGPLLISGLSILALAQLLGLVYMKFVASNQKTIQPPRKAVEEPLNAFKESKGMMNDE

| Kd(μM)PR [1] | Compound | MEC-1 Cell Death (%) 2 h, [peptides] = 200 μM [2] [%] | Cell Death (MEC-1, 2 h) [2] [%] | other results |
| --- | --- | --- | --- | --- |
| – | CSCC[C@H](NC(=O)[C@@H](NC(=O)[C@@H](NC(=O)[C@H](Cc1ccc(O)cc1)NC(=O)[C@H](C)NC(=O)[C@H](CCCNC(=N)N)NC(=O)[C@H](N)CCCCN)C(C)C)C(C)C)C(=O)N[C@@H](Cc1c[nH]c2ccccc12)C(=O)N[C@@H](CCCCN)C(=O)N[C@H](CCCCN)C(=O)O [F3/A, kR(A)YVVMWKk] (H-[dK]RAYVVMWK[dK]-OH; N-terminus and C-terminus assumed) | 6 | – | Kd (μM) [1]: NPD |
| NPD | CSCC[C@H](NC(=O)[C@@H](NC(=O)[C@H](C(C)C)N(C)C(=O)[C@H](Cc1ccc(O)cc1)NC(=O)[C@H](Cc1ccccc1)NC(=O)[C@H](CCCNC(=N)N)NC(=O)[C@H](N)CCCCN)C(C)C)C(=O)N[C@@H](Cc1c[nH]c2ccccc12)C(=O)N[C@@H](CCCCN)C(=O)N[C@H](CCCCN)C(=O)O [PKT8, H-(D)K R F Y ψ(CONMe)V V M W K (D)K-OH] | – | 0 | – |
| NPD | CSCC[C@H](NC(=O)[C@H](C(C)C)N(C)C(=O)[C@@H](NC(=O)[C@H](Cc1ccc(O)cc1)NC(=O)[C@H](Cc1ccccc1)NC(=O)[C@H](CCCNC(=N)N)NC(=O)[C@H](N)CCCCN)C(C)C)C(=O)N[C@@H](Cc1c[nH]c2ccccc12)C(=O)N[C@@H](CCCCN)C(=O)N[C@H](CCCCN)C(=O)O [PKT7, H-(D)K R F Y V ψ(CONMe)V M W K (D)K-OH] | – | 0 | – |
| NPD | CSCC[C@H](NC(=O)[C@@H](NC(=O)[C@@H](NC(=O)[C@H](Cc1ccc(O)cc1)NC(=O)[C@H](Cc1ccccc1)N(C)C(=O)[C@H](CCCNC(=N)N)NC(=O)[C@H](N)CCCCN)C(C)C)C(C)C)C(=O)N[C@@H](Cc1c[nH]c2ccccc12)C(=O)N[C@@H](CCCCN)C(=O)N[C@H](CCCCN)C(=O)O [PKT10, H-(D)K R ψ(CONMe)F Y V V M W K (D)K-OH] | – | 0 | – |
| – | CC(C)[C@H](NC(=O)[C@H](Cc1ccc(O)cc1)NC(=O)[C@H](Cc1ccccc1)NC(=O)[C@H](CCCNC(=N)N)NC(=O)[C@H](N)CCCCN)C(=O)N[C@H](C(=O)N[C@@H](C)C(=O)N[C@@H](Cc1c[nH]c2ccccc12)C(=O)N[C@@H](CCCCN)C(=O)N[C@H](CCCCN)C(=O)O)C(C)C [M7/A, kRFYVV(A)WKk] (H-[dK]RFYVVAWK[dK]-OH; N-terminus and C-terminus assumed) | 6 | – | – |
| – | CSCC[C@H](NC(=O)[C@@H](NC(=O)[C@@H](NC(=O)[C@H](Cc1ccc(O)cc1)NC(=O)[C@H](Cc1ccccc1)NC(=O)[C@H](CCCNC(=N)N)N(C)C(=O)[C@H](N)CCCCN)C(C)C)C(C)C)C(=O)N[C@@H](Cc1c[nH]c2ccccc12)C(=O)N[C@@H](CCCCN)C(=O)N[C@H](CCCCN)C(=O)O [PKT11, H-(D)K ψ(CONMe)R F Y V V M W K (D)K-OH] | – | 60 | – |
| – | CSCC[C@H](NC(=O)[C@H](C)NC(=O)[C@@H](NC(=O)[C@H](Cc1ccc(O)cc1)NC(=O)[C@H](Cc1ccccc1)NC(=O)[C@H](CCCNC(=N)N)NC(=O)[C@H](N)CCCCN)C(C)C)C(=O)N[C@@H](Cc1c[nH]c2ccccc12)C(=O)N[C@@H](CCCCN)C(=O)N[C@H](CCCCN)C(=O)O [V6/A, kRFYV(A)MWKk] (H-[dK]RFYVAMWK[dK]-OH; N-terminus and C-terminus assumed) | 30 | – | Kd (μM) [1]: NPD |
| NPD | CSCC[C@H](NC(=O)[C@@H](NC(=O)[C@@H](NC(=O)[C@H](Cc1ccc(O)cc1)NC(=O)[C@H](Cc1ccccc1)NC(=O)[C@H](CCCNC(=N)N)NC(=O)[C@H](N)CCCCN)C(C)C)C(C)C)C(=O)N(C)[C@@H](Cc1c[nH]c2ccccc12)C(=O)N[C@@H](CCCCN)C(=O)N[C@H](CCCCN)C(=O)O [PKT12, H-(D)K R F Y V V M ψ(CONMe)W K (D)K-OH] | – | 0 | – |
| – | CSCC[C@H](NC(=O)[C@@H](NC(=O)[C@@H](NC(=O)[C@H](Cc1ccc(O)cc1)NC(=O)[C@H](Cc1ccccc1)NC(=O)[C@H](CCCNC(=N)N)NC(=O)[C@H](N)CCCCN)C(C)C)C(C)C)C(=O)N[C@@H](C)C(=O)N[C@@H](CCCCN)C(=O)N[C@H](CCCCN)C(=O)O [W8/A, kRFYVVM(A)Kk] (H-[dK]RFYVVMAK[dK]-OH; N-terminus and C-terminus assumed) | 35 | – | Kd (μM) [1]: NPD |
| – | CCCC[C@H](NC(=O)[C@@H](NC(=O)[C@@H](NC(=O)[C@H](Cc1ccc(O)cc1)NC(=O)[C@H](Cc1ccccc1)NC(=O)[C@H](CCCNC(=N)N)NC(=O)[C@H](N)CCCCN)C(C)C)C(C)C)C(=O)N[C@@H](Cc1c[nH]c2ccccc12)C(=O)N[C@@H](CCCCN)C(=O)N[C@H](CCCCN)C(=O)O [M/Nle, kRFYVV(Nle)WKk] (H-[dK]RFYVV[Nle]WK[dK]-OH) | 47 | – | – |
| NPD | CSCC[C@H](NC(=O)[C@@H](NC(=O)[C@@H](NC(=O)[C@H](Cc1ccc(O)cc1)N(C)C(=O)[C@H](Cc1ccccc1)NC(=O)[C@H](CCCNC(=N)N)NC(=O)[C@H](N)CCCCN)C(C)C)C(C)C)C(=O)N[C@@H](Cc1c[nH]c2ccccc12)C(=O)N[C@@H](CCCCN)C(=O)N[C@H](CCCCN)C(=O)O [PKT9, H-(D)K R F ψ(CONMe)Y V V M W K (D)K-OH] | – | 0 | – |
| – | kRF(A)VVMWKk ([dK]RFAVVMWK[dK]) [Y4/A] | 0 | – | Kd (μM) [1]: NPD |
| – | CSCC[C@H](NC(=O)[C@@H](NC(=O)[C@@H](NC(=O)[C@H](Cc1ccc(O)cc1)NC(=O)[C@H](Cc1ccccc1)NC(=O)[C@H](C)NC(=O)[C@H](N)CCCCN)C(C)C)C(C)C)C(=O)N[C@@H](Cc1c[nH]c2ccccc12)C(=O)N[C@@H](CCCCN)C(=O)N[C@H](CCCCN)C(=O)O [R2/A, k(A)FYVVMWKk] (H-[dK]AFYVVMWK[dK]-OH) | 44 | – | – |
| – | CC(C)C[C@H](NC(=O)[C@@H](NC(=O)[C@@H](NC(=O)[C@H](Cc1ccc(O)cc1)NC(=O)[C@H](Cc1ccccc1)NC(=O)[C@H](CCCNC(=N)N)N(C)C(=O)[C@H](N)CCCCN)C(C)C)C(C)C)C(=O)N[C@@H](Cc1c[nH]c2ccccc12)C(=O)N[C@@H](CCCCN)C(=O)N[C@H](CCCCN)C(=O)O [PKT17, H-(D)K ψ(CONMe)R F Y V V L W K (D)K-OH] (H-[dK][NMeR]FYVVLWK[dK]-OH) | – | 30 | – |
| – | CSCC[C@H](NC(=O)[C@@H](NC(=O)[C@@H](NC(=O)[C@H](Cc1ccc(O)cc1)NC(=O)[C@H](Cc1ccccc1)NC(=O)[C@H](CCCNC(=N)N)N(C)C(=O)[C@H](N)CCCCN)C(C)C)C(C)C)C(=O)N[C@@H](Cc1c[nH]c2ccccc12)C(=O)N(C)[C@@H](CCCCN)C(=O)N[C@H](CCCCN)C(=O)O [PKT15, H-(D)K ψ(CONMe)R F Y V V M W ψ(CONMe)K (D)K-OH] | – | 10 | – |
| – | H-(D)K ψ(CONMe)R F Y VV I W K (D)K-OH [PKT18] | – | 45 | – |
| – | CSCC[C@H](NC(=O)[C@@H](NC(=O)[C@@H](NC(=O)[C@H](Cc1ccc(O)cc1)NC(=O)[C@H](Cc1ccccc1)NC(=O)[C@H](CCCNC(=N)N)NC(=O)[C@H](N)CCCCN)C(C)C)C(C)C)C(=O)N[C@@H](Cc1c[nH]c2ccccc12)C(=O)N[C@@H](C)C(=O)N[C@H](CCCCN)C(=O)O [K9/A, kRFYVVMW(A)k] (H-[dK]RFYVVMWA[dK]-OH) | 46 | – | – |
| – | CSCC[C@H](NC(=O)[C@@H](NC(=O)[C@@H](NC(=O)[C@H](Cc1ccc(O)cc1)NC(=O)[C@H](Cc1ccccc1)NC(=O)[C@H](CCCNC(=N)N)NC(=O)[C@H](CCCCN)NC(C)=O)C(C)C)C(C)C)C(=O)N[C@@H](Cc1c[nH]c2ccccc12)C(=O)N[C@@H](CCCCN)C(=O)N[C@@H](CCCCN)C(N)=O [compound 2] (Ac-KRFYVVMWKK-NH2) | – | – | MEC-1 Cell Death (%) 2 h ([2]; Table 2, NPD = Non Pertinent Data): 30% |

| Compound | Kd(μM)PR [1] | MEC-1 Cell Death (%) 2 h, [peptides] = 200 μM [2] [%] | Cell Death (MEC-1, 2 h) [2] [%] | other results |
| --- | --- | --- | --- | --- |
| H-(D)K R F Y V V ψ(CONMe)M W K (D)K-OH (KRFYVVMWKK; D-residues, N-methyl amide bond; (1)..(1) Amino acid at position 1 is in the D-configuration; (7)..(7) Amino acid at position 7 is backbone-N- …ON of the Methionine; (10)..(10) Amino acid at position 10 is in the D-configuration) [PKT13] | NPD | – | 0 | – |
